Results reported in patent publication US8492329B2, “Bioactive peptides and methods of using same” (Compugen Ltd., priority 2007, dated 2013).
No end group written: not given here.

How the values were obtained:
[1] = system: untransfected CHO-K1 cells; assay: ACEA RT-CES cell impedance, untransfected CHO-K1 cells; format: cell-based; details: for effect on cell impedance (normalized cell index): P74C13V 10 uM, H2 Relaxin 1 uM, FIG. 11; for dose response activation (cell impedance): data not shown
Source text: ACEA RT-CES screen is a noninvasive and label-free assay for GPCRs that can be used with both engineered and nonengineered cell lines. The assay is based on using cell-electrode impedance to measure minute changes in cellular morphology as a result of ligand-dependent GPCR activation and is described in Naichen Yu, et al., Anal. Chem., 78 (1), 35-43, 2006. 10.1021/ac051695v S0003-2700(05)01695-1. The Rho family of small GTPases, which include Rho, Rac, and CDC42, are well-characterized effectors of oncogenes, growth factor and adhesion-mediated signaling pathways and are not classically thought of as being key effectors for GPCRs. Rho family GTPases participate in a number of cellular processes, the main one being regulation and maintenance of specific structures within the actin cytoskeleton framework. […] The current view of the actin cytoskeleton is that of a dynamic and plastic system that is a reflection and manifestation of the intracellular signaling and not simply a static structure designed to maintain cellular architecture. Since GPCRs couple to the actin cytoskeletal network and induce very defined morphological changes, it is possible to harness this information as a functional and biologically relevant readout for GPCRs.
ACEA biosciences; has designed electronic cell sensor arrays embedded in the bottom of the well of microtiter plates that are capable of measuring minute changes in cell morphology. The electronic sensors measure changes in cell-substrate impedance as a result of the disruption of the ionic environment due to the presence of cell and cell morphology dynamics. The main advantages offered by using cell-substrate impedance and cell morphology as a readout are that both exogenously expressed and endogenous receptors can be assayed without the need for engineering the cell with promiscuous G proteins and reporters or labeling the cells with dyes. In addition, since the readout is noninvasive, multiple stimulations with the same ligand or different ligands can be performed to assess events such as desensitization and receptor cross-talk. Finally, another major aspect of using cell-substrate impedance and cell morphology as a readout is that potentially all GPCRs, regardless of the signaling pathways, can be functionally monitored.
Peptides were synthesized by the solid phase peptide synthesis (SPPS) method, cleaved from the resin, and purified by RP-HPLC unless stated otherwise. […] Final purity of peptide was >90% as measured by RP-HPLC. […]
Before the transfected cells were seeded, […] SFM F12-HAM medium were added to each well of the E-plates and background levels were recorded.
Total cell number was calculated and cells were re-suspended in complete growth medium to cell concentration ranging from 0.3125×10^6/mL up to 0.4375×10^6/mL. […]

[2] = biological target: T1, GPR39 (Homo sapiens, UniProt O43194); assay: ACEA RT-CES cell impedance, GPR39 transfected CHO-K1 cells; format: cell-based; details: P74C13V 10 uM, H2 Relaxin 1 uM, FIG. 12
T1 construct: expressed in transfected cells; host or cells: CHO-K1 (transient, FuGENE6; pIRES-eGFP co-transfected)
T1 sequence (O43194 1-453): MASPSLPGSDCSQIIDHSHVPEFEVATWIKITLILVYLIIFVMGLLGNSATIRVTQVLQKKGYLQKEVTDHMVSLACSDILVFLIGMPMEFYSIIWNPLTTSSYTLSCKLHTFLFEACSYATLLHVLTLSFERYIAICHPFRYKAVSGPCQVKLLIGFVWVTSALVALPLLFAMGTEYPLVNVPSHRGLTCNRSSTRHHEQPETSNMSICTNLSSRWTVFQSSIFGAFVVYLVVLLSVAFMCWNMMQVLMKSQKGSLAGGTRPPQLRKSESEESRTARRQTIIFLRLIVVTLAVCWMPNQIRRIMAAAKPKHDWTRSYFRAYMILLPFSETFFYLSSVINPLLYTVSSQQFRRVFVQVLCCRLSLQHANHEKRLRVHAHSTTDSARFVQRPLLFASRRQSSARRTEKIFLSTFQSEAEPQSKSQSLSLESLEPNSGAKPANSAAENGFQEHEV
Source text: ACEA RT-CES screen is a noninvasive and label-free assay for GPCRs that can be used with both engineered and nonengineered cell lines. The assay is based on using cell-electrode impedance to measure minute changes in cellular morphology as a result of ligand-dependent GPCR activation and is described in Naichen Yu, et al., Anal. Chem., 78 (1), 35-43, 2006. 10.1021/ac051695v S0003-2700(05)01695-1. The Rho family of small GTPases, which include Rho, Rac, and CDC42, are well-characterized effectors of oncogenes, growth factor and adhesion-mediated signaling pathways and are not classically thought of as being key effectors for GPCRs. […] Since GPCRs couple to the actin cytoskeletal network and induce very defined morphological changes, it is possible to harness this information as a functional and biologically relevant readout for GPCRs.
ACEA biosciences; has designed electronic cell sensor arrays embedded in the bottom of the well of microtiter plates that are capable of measuring minute changes in cell morphology. […] The main advantages offered by using cell-substrate impedance and cell morphology as a readout are that both exogenously expressed and endogenous receptors can be assayed without the need for engineering the cell with promiscuous G proteins and reporters or labeling the cells with dyes. […]

GQKGQVGPPGAAVRRAYAAFSVGRRAYAAFSV-OH [Peptide P74C13V]
effect on cell impedance (normalized cell index) [1]: moderate effect | dose response activation (cell impedance) [1]: no dose dependent activation but only a moderate activation of the highest concentrations | effect on cell impedance (normalized cell index) [2]: moderate yet visible effect

H2 Relaxin: H2 Relaxin (ACS), positive control, known ligand of LGR7 (RXFP1) [reference compound]
effect on cell impedance (normalized cell index) [1]: moderate effect | dose response activation (cell impedance) [1]: no dose dependent activation but only a moderate activation of the highest concentrations | effect on cell impedance (normalized cell index) [2]: moderate yet visible effect
